Experimental data from patent US8518980B2, “Treatment of Duchenne muscular dystrophy” (Summit Corporation PLC, priority 2006, dated 2013).

Test system: Utrophin A promoter linked to a luciferase reporter gene (H2K/mdx/Utro A reporter cell line)
Assay: Luciferase reporter assay (murine H2K cells)
Conditions: for activity at 10 µM: Mus musculus, H2K mdx

For Cc1cc(-c2nc3cc(Cl)ccc3o2)ccc1[N+](=O)[O-] [Example 539, 5-chloro-2-(3-methyl-4-nitrophenyl)benzo[d]oxazole], the activity at 10 µM was < 200%.

With O=C(Nc1ccc(-c2nc3ccccc3[nH]2)cc1)c1ccc2c(c1)OCO2 [Example 540, N-(4-(1H-benzo[d]imidazol-2-yl)phenyl)benzo[d][1,3]dioxole-5-carboxamide] the activity at 10 µM was < 200%.

With Cn1c(-c2ccc(Cl)cc2)nc2ccccc21 [Example 541, 2-(4-chlorophenyl)-1-methyl-1H-benzo[d]imidazole] the activity at 10 µM was 201 to 300%.

COc1ccc(-c2nc3ccccc3s2)cc1NC(C)=O [Example 542, N-(5-(benzo[d]thiazol-2-yl)-2-methoxyphenyl)acetamide] gave an activity at 10 µM of 201 to 300%.

CSc1ccc(-c2nc3ccccc3[nH]2)cc1 [Example 543, 2-(4-(methylthio)phenyl)-1H-benzo[d]imidazole] showed an activity at 10 µM of 201 to 300%.

Nc1ccc(-c2nc3ccc(N)cc3o2)cc1 [Example 544, 2-(4-aminophenyl)benzo[d]oxazol-6-amine] showed an activity at 10 µM of 201 to 300%.

In the case of Cc1ccc2nc(-c3ccc(NC(=O)c4ccccc4C(=O)O)cc3)sc2c1 [Example 545, 2-(4-(6-methylbenzo[d]thiazol-2-yl)phenylcarbamoyl)benzoic acid], the activity at 10 µM is reported as < 200%.

In the case of CC1=NN(c2nc3ccccc3s2)C(=O)/C1=C(/C)NC1CC1 [Example 546, (Z)-1-(benzo[d]thiazol-2-yl)-4-(1-(cyclopropylamino)ethylidene)-3-methyl-1H-pyrazol-5(4H)-one], the activity at 10 µM is reported as < 200%.

In the case of C(=C\c1nc2ccccc2[nH]1)/c1ccccc1 [Example 547, (E)-2-styryl-1H-benzo[d]imidazole], the activity at 10 µM is reported as 301 to 400%.

For Cc1ccc(C)c(OCc2nc3ccccc3[nH]2)c1 [Example 548, 2-((2,5-dimethylphenoxy)methyl)-1H-benzo[d]imidazole], the activity at 10 µM was < 200%.

CCOc1ccc(-c2nc3cc(N)ccc3o2)cc1 [Example 549, 2-(4-ethoxyphenyl)benzo[d]oxazol-5-amine] was tested, and the activity at 10 µM was < 200%.

Nc1ccc(O)c(-c2nc3cc(N)ccc3s2)c1 [Example 550, 4-amino-2-(5-aminobenzo[d]thiazol-2-yl)phenol] was tested, and the activity at 10 µM was < 200%.

CCc1ccc2oc(-c3cc(N)ccc3O)nc2c1 [Example 551, 4-amino-2-(5-ethylbenzo[d]oxazol-2-yl)phenol] was tested, and the activity at 10 µM was < 200%.

For c1ccc(NNc2nc3ccccc3s2)cc1 [Example 552, 2-(2-phenylhydrazinyl)benzo[d]thiazole], the activity at 10 µM was < 200%.

For CCc1ccc2oc(-c3ccc(N)cc3)nc2c1 [Example 553, 4-(5-ethylbenzo[d]oxazol-2-yl)aniline], the activity at 10 µM was > 401%.

Cc1ccc2[nH]c(-c3ccccc3N)nc2c1 [Example 554, 2-(5-methyl-1H-benzo[d]imidazol-2-yl)aniline] showed an activity at 10 µM of 301 to 400%.

In the case of CCOc1ccc2nc(NC(=O)c3ccccc3)sc2c1 [Example 555, N-(6-ethoxybenzo[d]thiazol-2-yl)benzamide], the activity at 10 µM is reported as < 200%.

For CC(=O)Nc1ccc(-c2nc3cc(Cl)c(NC(C)=O)cc3[nH]2)cc1 [Example 556, N-(4-(6-acetamido-5-chloro-1H-benzo[d]imidazol-2-yl)phenyl)acetamide], the activity at 10 µM was < 200%.

For Nc1ccc(Oc2ccc(-c3nc4ccccc4[nH]3)cc2)cc1 [Example 557, 4-(4-(1H-benzo[d]imidazol-2-yl)phenoxy)aniline], the activity at 10 µM was > 401%.

In the case of c1ccc(-c2ccc(-c3nc4ccccc4[nH]3)cc2)cc1 [Example 558, 2-(biphenyl-4-yl)-1H-benzo[d]imidazole], the activity at 10 µM is reported as < 200%.

Work on Cc1cc2nc(-c3cc(N)ccc3O)oc2cc1C [Example 559, 4-amino-2-(5,6-dimethylbenzo[d]oxazol-2-yl)phenol] yielded an activity at 10 µM of 301 to 400%.

Nc1ccc2[nH]c(-c3ccc(Cl)cc3)nc2c1 [Example 560, 2-(4-chlorophenyl)-1H-benzo[d]imidazol-5-amine] showed an activity at 10 µM of 301 to 400%.

In the case of c1csc(-c2nc3cc4ccccc4cc3[nH]2)c1 [Example 561, 2-(thiophen-2-yl)-1H-naphtho[2,3-d]imidazole], the activity at 10 µM is reported as 301 to 400%.

Molecule O=C(Nc1ccc(-c2nc3ccccc3[nH]2)cc1)c1ccco1 [Example 562, N-(4-(1H-benzo[d]imidazol-2-yl)phenyl)furan-2-carboxamide] has an activity at 10 µM of 301 to 400%.

In the case of CCSc1nc2ccc(N)cc2s1 [Example 563, 2-(ethylthio)benzo[d]thiazol-6-amine], the activity at 10 µM is reported as 201 to 300%.

In the case of Cc1ccc2nc(-c3ccc(NC(=O)C(C)C)cc3)oc2c1 [Example 564, N-(4-(6-methylbenzo[d]oxazol-2-yl)phenyl)isobutyramide], the activity at 10 µM is reported as < 200%.

CC(C)c1ccc2oc(-c3ccc(N)cc3O)nc2c1 [Example 565, 5-amino-2-(5-isopropylbenzo[d]oxazol-2-yl)phenol] showed an activity at 10 µM of 301 to 400%.

For Cc1c(N)cccc1-c1nc2cc(Cl)ccc2o1 [Example 566, 3-(5-chlorobenzo[d]oxazol-2-yl)-2-methylaniline], the activity at 10 µM was < 200%.

For Cc1ccc(C(=O)Nc2nc3ccccc3s2)c(Cl)c1 [Example 567, N-(benzo[d]thiazol-2-yl)-2-chloro-4-methylbenzamide], the activity at 10 µM was < 200%.

Cc1ccc(-c2nc3ccccc3[nH]2)cc1NC(=O)C(F)(F)F [Example 568, N-(5-(1H-benzo[d]imidazol-2-yl)-2-methylphenyl)-2,2,2-trifluoroacetamide] was tested, and the activity at 10 µM was 301 to 400%.

In the case of Nc1ccc2oc(-c3ccccc3F)nc2c1 [Example 569, 2-(2-fluorophenyl)benzo[d]oxazol-5-amine], the activity at 10 µM is reported as 301 to 400%.

For CCCCc1nc2cc(S(=O)(=O)CC)ccc2o1 [Example 570, 2-butyl-5-(ethylsulfonyl)benzo[d]oxazole], the activity at 10 µM was < 200%.

In the case of CCCc1nc2cc(S(=O)(=O)CC)ccc2o1 [Example 571, 5-(ethylsulfonyl)-2-propylbenzo[d]oxazole], the activity at 10 µM is reported as < 200%.

CCc1nc2cc(S(=O)(=O)CC)ccc2o1 [Example 572, 2-ethyl-5-(ethylsulfonyl)benzo[d]oxazole] was tested, and the activity at 10 µM was < 200%.

In the case of CCS(=O)(=O)c1ccc2ocnc2c1 [Example 573, 5-(ethylsulfonyl)benzo[d]oxazole], the activity at 10 µM is reported as < 200%.

CCS(=O)(=O)c1ccc2oc(S)nc2c1 [Example 574, 5-(ethylsulfonyl)benzo[d]oxazole-2-thiol] was tested, and the activity at 10 µM was < 200%.

For CC(=O)Nc1cccc(-c2ccc3oc(-c4ccc(Cl)cc4)nc3c2)c1 [Example 575, N-(3-(2-(4-chlorophenyl)benzo[d]oxazol-5-yl)phenyl)acetamide], the activity at 10 µM was > 401%.

With CCNC(=O)Nc1ccc2[nH]c(C(C)(C)C)cc2c1 [Example 576, 1-(2-tert-butyl-1H-indol-5-yl)-3-ethylurea] the activity at 10 µM was < 200%.

With Nc1ccc2oc(-c3cccc4ccccc34)nc2c1 [Example 577, 2-(naphthalen-1-yl)benzo[d]oxazol-5-amine] the activity at 10 µM was < 200%.

For CCCS(=O)(=O)c1ccc2oc(-c3ccc(Cl)cc3)nc2c1 [Example 578, 2-(4-chlorophenyl)-5-(propylsulfonyl)benzo[d]oxazole], the activity at 10 µM was < 200%.

Oc1ccc2nc(-c3ccc(Cl)cc3)oc2c1 [Example 579, 2-(4-chlorophenyl)benzo[d]oxazol-6-ol] was tested, and the activity at 10 µM was > 401%.

With Cc1ccc2[nH]c(-c3ccc(NC(=O)c4ccco4)cc3)nc2c1 [Example 580, N-(4-(5-Methyl-1H-benzo[d]imidazol-2-yl)phenyl)furan-2-carboxamide] the activity at 10 µM was 301 to 400%.

In the case of O=C(c1ccccc1)c1ccc2nc(-c3ccccc3)[nH]c2c1 [Example 581, Phenyl (2-phenyl-1H-benzo[d]imidazol-6-yl)methanone], the Activity (Table 2, luciferase level relative to control, final concentration of 10 μM) is reported as “+ (Up to 200% relative to control)”.

For COc1ccc(-c2nc3ccccc3s2)cc1 [Example 582, 2-(4-Methoxyphenyl)benzo[d]thiazole], the activity at 10 µM was > 401%.

In the case of COc1ccc(-c2nc3ccccc3o2)cc1 [Example 583, 2-(4-Methoxyphenyl)benzo[d]oxazole], the activity at 10 µM is reported as 301 to 400%.

Work on COc1ccc(-c2nc3ccc([N+](=O)[O-])cc3o2)cc1 [Example 584, 2-(4-Methoxyphenyl)-6-nitrobenzo[d]oxazole] yielded an activity at 10 µM of 301 to 400%.

O=C(Nc1ccc(-c2nc3ccccc3[nH]2)cc1)c1cccs1 [Example 585, N-(4-(1H-Benzo[d]imidazol-2-yl)phenyl)thiophene-2-carboxamide] was tested, and the activity at 10 µM was > 401%.

In the case of COc1ccc(-c2nc3cc([N+](=O)[O-])ccc3[nH]2)cc1 [Example 586, 2-(4-Methoxyphenyl)-5-nitro-1H-benzo[d]imidazole], the activity at 10 µM is reported as 201 to 300%.

O=C(Nc1ccc(-c2nc3ccccc3[nH]2)cc1)C1CCCO1 (stereo not shown) [Example 587, N-(4-(1H-Benzo[d]imidazol-2-yl)phenyl)tetrahydrofuran-2-carboxamide] was tested, and the activity at 10 µM was 301 to 400%.

Cc1ccc(-c2nc3ccccc3n2C)cc1 [Example 588, 1-Methyl-2-p-tolyl-1H-benzo[d]imidazole] gave an activity at 10 µM of 301 to 400%.

CC(=O)Nc1ccc(-c2nc3ccccc3o2)cc1 [Example 589, N-(4-(Benzo[d]oxazol-2-yl)phenyl)acetamide] showed an activity at 10 µM of 301 to 400%.

With Cc1cc(C)c2nc(-c3ccc(N)cc3)oc2c1 [Example 590, 4-(4,6-Dimethylbenzo[d]oxazol-2-yl)aniline] the activity at 10 µM was > 401%.

CC(=O)Nc1ccc(-c2nc3ccccc3[nH]2)cc1 [Example 591, N-(4-(1H-Benzo[d]imidazol-2-yl)phenyl)acetamide] was tested, and the activity at 10 µM was 301 to 400%.

In the case of Nc1cc(-c2nc3ccccc3s2)ccc1Cl [Example 592, 5-(Benzo[d]thiazol-2-yl)-2-chloroaniline], the activity at 10 µM is reported as > 401%.

With CC(C)(C)c1ccc2oc(-c3ccc(N)cc3)nc2c1 [Example 593, 4-(5-Tert-butylbenzo[d]oxazol-2-yl)aniline] the activity at 10 µM was 301 to 400%.

For Oc1cccc(-c2nc3ccccc3s2)c1 [Example 594, 3-(Benzo[d]thiazol-2-yl)phenol], the activity at 10 µM was > 401%.

In the case of Clc1ccc(-c2nc3ccccc3s2)c(Cl)c1 [Example 595, 2-(2,4-Dichlorophenyl)benzo[d]thiazole], the activity at 10 µM is reported as 201 to 300%.

In the case of COc1ccc(-c2nc3ccccc3s2)cc1O [Example 596, 5-(Benzo[d]thiazol-2-yl)-2-methoxyphenol], the activity at 10 µM is reported as > 401%.
